Laboratory results as given in PubChem BioAssay (NCI).
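Interpolation was linear, between the two tested concentrations surrounding the appropriate level; five concentrations were tested over 48 hours in 96-well plates. GI50 = concentration required for 50% inhibition of growth. TGI: total growth inhibition.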

What was measured:
Assay in all cases: inhibition of tumour cell growth, NCI panel, 48 h
[1] = tested on: HCT-15 colon
[2] = tested on: MDA-MB-231 breast
[3] = tested on: OVCAR-5 ovarian
[4] = tested on: UACC-62 melanoma
[5] = tested on: SK-OV-3 ovarian
[6] = tested on: NCI-H522 lung
[7] = tested on: SNB-75 CNS
[8] = tested on: HCT-116 colon

Compound	GI50 [1]	TGI [1]	GI50 [2]	TGI [2]	GI50 [3]	TGI [3]	GI50 [4]	TGI [4]	GI50 [5]	TGI [5]	GI50 [6]	TGI [6]	GI50 [7]	TGI [7]	GI50 [8]	TGI [8]
COc1ccccc1CNCCCN1C(=O)c2ccc3c4c(ccc(c24)C1=O)C(=O)N(CCCN)C3=O	1.41 µM	3.67 µM	1.67 µM	10.9 µM	1.6 µM	3.56 µM	0.422 µM	1.56 µM	2.53 µM	7.18 µM	1.51 µM	2.97 µM	1.36 µM	2.72 µM	0.349 µM	1.23 µM
CC1=C(CCC(C)NCc2ccc(OCCCN3CCCCC3)cc2)C(C)(C)CCC1 (stereo not drawn)	0.575 µM	2.03 µM	1.02 µM	2.73 µM	1.91 µM	4.11 µM	1.94 µM	3.73 µM	2.06 µM	3.76 µM	1.45 µM	3.21 µM	1.39 µM	2.72 µM	1.53 µM	3.13 µM
Cc1ccc(C(=O)NC2CCC2)cc1-c1ccc(C(=O)NCC2CC2)cc1	> 25 µM	> 25 µM	> 25 µM	> 25 µM	> 25 µM	> 25 µM	> 25 µM	> 25 µM	> 25 µM	> 25 µM	> 25 µM	> 25 µM	> 25 µM	> 25 µM	> 25 µM	> 25 µM
Nc1c(C(=O)c2cccc(-c3cccnc3)c2)cnn1-c1ccc(F)cc1F	1.11 µM	> 25 µM	3.8 µM	> 25 µM	> 19.6 µM	> 25 µM	2.65 µM	> 25 µM	7.21 µM	> 25 µM	1.57 µM	> 15 µM	5.33 µM	> 25 µM	2.87 µM	> 25 µM
COc1ccc(/C=C(\C(=O)NCc2cccnc2)S(=O)(=O)c2ccccc2)cc1OC	2.85 µM	11.7 µM	2.93 µM	10.6 µM	3.31 µM	10.3 µM	1.76 µM	3.74 µM	4.1 µM	13.2 µM	1.7 µM	4.61 µM	2.08 µM	7.84 µM	2.11 µM	6.12 µM
COc1ccc(CC(=O)c2ccc(O)cc2O)cc1	> 100 µM	> 100 µM	> 100 µM	> 100 µM	> 100 µM	> 100 µM	93 µM	> 100 µM	> 100 µM	> 100 µM	60.8 µM	> 100 µM	> 100 µM	> 100 µM	> 100 µM	> 100 µM
COC(=O)Nc1nc2ccc(Oc3cccc(NC(=O)Nc4cc(C(F)(F)F)ccc4F)c3)cc2[nH]1	11.8 µM	> 25 µM	11.4 µM	> 25 µM	> 22.5 µM	> 25 µM	8.11 µM	> 25 µM	10.2 µM	> 25 µM	5.73 µM	20.6 µM	8.53 µM	> 25 µM	7.71 µM	> 25 µM
CC[C@H](CO)Nc1nc(NCc2ccccc2)c2ncn(C(C)C)c2n1	–	> 81.6 µM	32.2 µM	> 100 µM	28 µM	> 96.4 µM	10.5 µM	34 µM	–	> 100 µM	–	57.8 µM	–	30.6 µM	11.1 µM	> 100 µM
O=C1c2ccc3c4c(ccc(c24)C(=O)N1CCCNCc1ccccc1Cl)C(=O)N(CCCNCc1ccccc1Cl)C3=O	0.148 µM	0.62 µM	0.25 µM	2.2 µM	0.592 µM	1.67 µM	0.671 µM	1.43 µM	0.862 µM	3.18 µM	0.293 µM	0.974 µM	0.716 µM	1.47 µM	0.126 µM	0.344 µM
Cc1nn(-c2ccc(Cl)cc2)c2nc3c(nc12)C(=O)C(=O)c1ccccc1-3	3.4 µM	16.8 µM	4.31 µM	66.3 µM	12 µM	> 100 µM	8.45 µM	34.4 µM	> 100 µM	> 100 µM	2.96 µM	6.57 µM	1.66 µM	4.3 µM	7.42 µM	32.8 µM
C#CCNCCN1C(=O)c2ccc3c4c(ccc(c24)C1=O)C(=O)N(CCNCC#C)C3=O	2.95 µM	10.6 µM	5.24 µM	13.6 µM	8.63 µM	18.3 µM	1.71 µM	6.68 µM	6.3 µM	22.6 µM	3.98 µM	10.9 µM	5.95 µM	14.5 µM	1.75 µM	11.1 µM
C=C1c2ccoc2C[C@H]2[C@H]1CC[C@@]1(O)[C@@](C)(C(=O)OC)CCC[C@]21C	24.9 µM	64.9 µM	36.6 µM	> 100 µM	> 100 µM	> 100 µM	13.7 µM	30.7 µM	> 100 µM	> 100 µM	17.5 µM	54 µM	> 100 µM	> 100 µM	15.7 µM	31.2 µM
Cc1[nH]c(=O)nc(Nc2ccc(Cl)cc2)c1C(=O)N1CCN(CCO)CC1	> 100 µM	> 100 µM	46.3 µM	> 100 µM	> 100 µM	> 100 µM	94.8 µM	> 100 µM	29.8 µM	83.1 µM	59.8 µM	> 100 µM	21.7 µM	52.3 µM	81.9 µM	> 100 µM
Nc1c(C(=O)c2cccc(C#CCO)c2)cnn1-c1ccc(F)cc1	> 25 µM	> 25 µM	> 25 µM	> 25 µM	> 25 µM	> 25 µM	> 25 µM	> 25 µM	> 25 µM	> 25 µM	> 25 µM	> 25 µM	> 25 µM	> 25 µM	> 25 µM	> 25 µM
Nc1ccccc1C#C/C=C\C#Cc1cccc(O)c1	2.04 µM	13.9 µM	2.29 µM	14.1 µM	7.64 µM	23 µM	1.87 µM	6.6 µM	3.03 µM	19.8 µM	1.09 µM	11.5 µM	1.36 µM	13.5 µM	2.73 µM	12.2 µM
CCOC(=O)c1cc2c(n1Cc1cc(OC)c(OC)c(OC)c1)-c1oncc1CCC2	0.186 µM	> 100 µM	0.372 µM	2.46 µM	0.481 µM	> 100 µM	0.0666 µM	> 40.3 µM	0.185 µM	3.55 µM	0.0208 µM	0.073 µM	0.111 µM	> 61.7 µM	0.235 µM	> 100 µM
Cn1cccc1-c1cc(-c2ccc(Br)cc2)[nH]c(=O)c1C#N	> 100 µM	> 100 µM	82.5 µM	> 100 µM	> 100 µM	> 100 µM	49.2 µM	> 100 µM	> 100 µM	> 100 µM	82.1 µM	> 100 µM	25.4 µM	> 100 µM	> 100 µM	> 100 µM
COc1ccc(N(/C=C/C(=O)C(F)(F)F)CC(=O)c2ccc(F)cc2)cc1	16 µM	38.7 µM	16.1 µM	48.4 µM	34.1 µM	93.3 µM	12 µM	38.3 µM	42.9 µM	> 100 µM	18.7 µM	36.9 µM	> 100 µM	> 100 µM	14.7 µM	27.9 µM
CCC[CH2][Sn]1([CH2]CCC)[O]C2C(CO)OC(n3ccc(N)nc3=O)C2[O]1 (stereo not drawn)	1.27 µM	2.7 µM	0.818 µM	2.19 µM	1.57 µM	3.03 µM	1.12 µM	2.41 µM	1.82 µM	3.38 µM	0.186 µM	0.424 µM	1.05 µM	2.28 µM	1.44 µM	2.79 µM
CN(C)CC1CCC2=C(C1=O)C(c1ccc(Cl)c(Cl)c1)C1=C(CCC(CN(C)C)C1=O)O2 (stereo not drawn)	8.75 µM	29.2 µM	15.4 µM	28.7 µM	20 µM	36.6 µM	15.3 µM	28.7 µM	13.3 µM	26 µM	1.81 µM	3.37 µM	12.4 µM	25.8 µM	10.4 µM	23.4 µM
Nc1ncnc2c1c(-c1ccc(Oc3ccccc3)cc1)nn2C[C@@H]1SSC[C@H]1O	1.16 µM	7.31 µM	1.8 µM	5.45 µM	3.47 µM	26.6 µM	0.264 µM	0.882 µM	0.92 µM	4.33 µM	2.08 µM	7.18 µM	4.25 µM	> 33.4 µM	0.364 µM	5.23 µM
N#CSCc1ccc(Cl)c(CSC#N)c1	0.143 µM	25.1 µM	2.36 µM	> 64 µM	1.77 µM	24.5 µM	2.53 µM	23.7 µM	20 µM	> 100 µM	0.0816 µM	9.06 µM	0.601 µM	59.9 µM	0.0379 µM	14.8 µM
